Where a name gives a salt, the structure may show the parent alone. Where no end group is shown, it is not given here.
Assays:
[1] = test system: neointimal proliferation after vascular injury; settings: rabbit carotid artery air-drying injury; cited from earlier work
[2] = test system: rat cultured vascular smooth muscle cells; settings: cited from earlier work
[3] = test system: human cultured vascular smooth muscle cells; settings: cited from earlier work

Row | Compound | melting point | also measured
1 | CCC(C)(C)c1ccc(S(=O)(=O)NCCC2COc3ccc(C(=N)N)cc32)cc1 (stereo not shown) [Example 1aar, 3-{2-[4-(1,1-Dimethylpropyl)benzenesulfonylamino]ethyl}-5-carbamimidoyl-2,3-dihydrobenzofuran] | 52 to 56 °C | 
2 | CC(C)(CN)c1ccc(C(=O)NCCC2COc3ccc(C(=N)N)cc32)cc1 (stereo not shown) (as salt: salt) [Example 1c, 4-(2-Amino-1,1-dimethylethyl)-N-(2-[5-carbamimidoyl-2,3-dihydrobenzofuran-3-yl]ethyl)benzamide] | 209 to 210 °C | 
3 | N=C(N)c1ccc2c(c1)C(CCNC(=O)c1ccc(-c3ccccn3)s1)CO2 (stereo not shown) [Example 1a, 5-(Pyridin-2-yl)-thiophene-2-carboxylic acid (2-[5-carbamimidoyl-2,3-dihydrobenzofuran-3-yl]ethyl)amide] | 54 to 56 °C | 
4 | CC(C)(C)c1ccc(C(=O)NCCC2COc3ccc(C(=N)N)cc32)cc1 (stereo not shown) (as salt: salt) [Example 1b, 4-tert-Butyl-N-(2-[5-carbamimidoyl-2,3-dihydrobenzofuran-3-yl]ethyl)benzamide] | 167 to 169 °C | 
5 | CC(=N)N1CC[C@H](Oc2ccc([C@H](Cc3ccc4ccc(C(=N)N)cc4c3)C(=O)O)cc2)C1 [DX-9065a] |  | neointimal proliferation [1]: less neointimal proliferation
6 | TAP: TAP, cited as example that the mitogenic effect of Factor Xa depends on Factor Xa enzymatic activity (YNRLCIKPRDWIDECDSNEGGERAYFRNGKGGCDSFWICPEDHTGADYYSSYRDCFNACI; ends and bridges not checked; cysteine pairing not given here; UniProt P17726 1-60, looked up) |  | mitogenesis of cultured vascular smooth muscle cells [2]: inhibited the mitogenesis; mitogenesis of cultured vascular smooth muscle cells [3]: inhibited the mitogenesis

Reference: US6599918B2, “Substituted (aminoiminomethyl or aminomethyl) dihydrobenzofurans and benzopyrans” (Aventis Pharmaceuticals Inc., priority 1999, dated 2003)
